Literature values in patent US20090048181A1, “Combination therapy with glatiramer acetate and n-acetylcysteine for the treatment of multiple sclerosis” (priority 2004, published 2009).

Key:
TNF-α = details: ten human patients suffering from multiple sclerosis; efficacy could not be ascertained
[1] = test system: EAE, a murine model of multiple sclerosis
[2] = test system: relapsing-remitting multiple sclerosis; details: daily subcutaneous injections, 20 mg/injection

Compound	TNF-α level (TNF-α)	induction of EAE ([1]; SJL/J mice, oral administration)	effect in animals with established EAE ([1]; established EAE, correlated with treatment in a dose-related manner)	appearance of "black holes" [2]	appearance of new lesions by magnetic resonance imaging (MRI) [2]	progression of disability [2]	relapse rates [2]
CC(=O)N[C@@H](CS)C(=O)O [N-acetylcysteine]	elevation	attenuated	improvement	–	–	–	–
L-glutamic acid polymer with L-alanine, L-lysine and L-tyrosine, acetate (salt) [glatiramer acetate]	–	–	–	reduce	reduce	reduce	reduce
